Here are results for 17 compounds from ChEMBL document CHEMBL6071146, “Synthesis and identification of a selective FGFR2 degrader with potent antiproliferative effects in gastric cancer” (Eur J Med Chem, 2024).

The term IC50 denotes the concentration that inhibits the measured activity by half. Lower therefore signals greater potency.

A short description of assay [1]: Antiproliferative activity against human KATO III cells incubated for 72 hrs by MTT assay. In general terms: Tetrazolium assays rely on reduction of a dye to a coloured formazan, in cell work by metabolically active cells.
Assay [2] relates to SNU-16. Nature of the assay: Antiproliferative activity against human SNU-16 cells incubated for 72 hrs by MTT assay. The following applies: SNU-16, 72 h.
The test system of assay [3] is SNU-16. As to the kind of experiment: cells. Particulars: Homo sapiens, SNU-16, 24 h, read-out: Activity.
Description: Induction of apoptosis in human SNU-16 cells assessed as viable cells at 500 nM incubated for 24 hrs by Annexin V-FITC/PI staining based flow cytometry (Rvb = 77.12 %)
In assay [4] the test system is SNU-16. Nature of the assay: Antitumor activity against human SNU-16 cells xenografted in BALB/c mouse at 20 mg/kg, ip qd for 25 days relative to control. The following applies: SNU-16, 600 h, read-out: TGI. (Xenograft models place foreign cells or tissue in a host animal.)
Assay [5] in a line: cells. Particulars: Homo sapiens, KATO III, 24 h, read-out: Activity.
Description: Induction of apoptosis in human KATO III cells assessed as viable cells at 1000 nM incubated for 24 hrs by Annexin V-FITC/PI staining based flow cytometry (Rvb = 87.00 %)
Assay [6] deals with SNU-16. Nature of the assay: cells. Particulars: Homo sapiens, SNU-16, 24 h, read-out: Activity. The source holds these as a separate data set.
Description: Induction of apoptosis in human SNU-16 cells assessed as viable cells at 1000 nM incubated for 24 hrs by Annexin V-FITC/PI staining based flow cytometry (Rvb = 77.12 %)
The nature of assay [7]: cells. Particulars: Homo sapiens, KATO III, 24 h, read-out: Activity. The source holds these as a separate data set.
Description: Induction of apoptosis in human KATO III cells assessed as viable cells at 500 nM incubated for 24 hrs by Annexin V-FITC/PI staining based flow cytometry (Rvb = 87.00 %)

SMILES strings stand for the structures. Bounds are passed on as bounds.

Turning to `COc1cc(OC)cc(N(CCNC(C)C)c2ccc3ncc(-c4cnn(CCOCCOCCOCCOCC(=O)NCCNc5cccc6c5C(=O)N(C5CCC(=O)NC5=O)C6=O)c4)nc3c2)c1` (centres undefined), the values for the IC50 in assay [1] and in assay [2] were 158 nM and 10 nM, respectively.

`COc1cc(OC)cc(N(CCNC(C)C)c2ccc3ncc(-c4cnn(CCC(=O)NCCNc5cccc6c5C(=O)N(C5CCC(=O)NC5=O)C6=O)c4)nc3c2)c1` (centres undefined): the IC50 in assay [1] is 701 nM; in assay [2], 153 nM.

For the compound `COc1cc(OC)cc(N(CCNC(C)C)c2ccc3ncc(-c4cnn(CCC(=O)NCC(=O)NCCNc5cccc6c5C(=O)N(C5CCC(=O)NC5=O)C6=O)c4)nc3c2)c1` (centres undefined), the figures for the IC50 in assay [1] and in assay [2] were 457 nM and 150 nM, respectively.

For `COc1cc(OC)cc(N(CCNC(C)C)c2ccc3ncc(-c4cnn(C)c4)nc3c2)c1` [ERDAFITINIB], the viability at 0.5 µM in assay [3] is 49.9%; in assay [7], 70.7%. In assay [4], the inhibition in vivo at 20 mg/kg amounted to 104%. Further, the half-inhibitory concentration (IC50) in assay [1] amounted to 4 nM; in assay [2], 1 nM. The viability at 1 µM turned out to be 69.1% in assay [5] and 47.8% in assay [6].

For the compound `COc1cc(OC)cc(N(CCNC(C)C)c2ccc3ncc(-c4cnn(CC(=O)NCC(=O)NCCNc5cccc6c5C(=O)N(C5CCC(=O)NC5=O)C6=O)c4)nc3c2)c1` (centres undefined), the IC50 came out at 523 nM in assay [1] and 65 nM in assay [2].

With `COc1cc(OC)cc(N(CCNC(C)C)c2ccc3ncc(-c4cnn(CCOCC(=O)NCCNc5cccc6c5C(=O)N(C5CCC(=O)NC5=O)C6=O)c4)nc3c2)c1` (centres undefined), the IC50 in assay [1] amounted to 388 nM; in assay [2], 23 nM.

In the case of `COc1cc(OC)cc(N(CCNC(C)C)c2ccc3ncc(-c4cnn(CCCCCC(=O)NCCNc5cccc6c5C(=O)N(C5CCC(=O)NC5=O)C6=O)c4)nc3c2)c1` (centres undefined), the half-inhibitory concentration (IC50) in assay [1] worked out at 51 nM; in assay [2] it was 1 nM.

On to `COc1cc(OC)cc(N(CCNC(C)C)c2ccc3ncc(-c4cnn(CCCC(=O)NCC(=O)NCCNc5cccc6c5C(=O)N(C5CCC(=O)NC5=O)C6=O)c4)nc3c2)c1` (centres undefined), for which the IC50 in assay [1] came to 2 nM; in assay [2], 22 nM.

Consider `COc1cc(OC)cc(N(CCNC(C)C)c2ccc3ncc(-c4cnn(CCOCCOCCOCC(=O)NCCNc5cccc6c5C(=O)N(C5CCC(=O)NC5=O)C6=O)c4)nc3c2)c1` (centres undefined), for which the IC50 in assay [1] was 140 nM; in assay [2] it was 1 nM.

As to `COc1cc(OC)cc(N(CCNC(C)C)c2ccc3ncc(-c4cnn(CCCCCCCC(=O)NCCNc5cccc6c5C(=O)N(C5CCC(=O)NC5=O)C6=O)c4)nc3c2)c1` (centres undefined), the IC50 in assay [1] and in assay [2] was less than 0.17 nM each time.

With `COc1cc(OC)cc(N(CCNC(C)C)c2ccc3ncc(-c4cnn(CCOCCOCC(=O)NCCNc5cccc6c5C(=O)N(C5CCC(=O)NC5=O)C6=O)c4)nc3c2)c1` (centres undefined), the IC50 in assay [1] is 208 nM; in assay [2], 1 nM.

For the compound `COc1cc(OC)cc(N(CCNC(C)C)c2ccc3ncc(-c4cnn(CCCCCCC(=O)NCC(=O)NCCNc5cccc6c5C(=O)N(C5CCC(=O)NC5=O)C6=O)c4)nc3c2)c1` (centres undefined), the IC50 in assay [1] and in assay [2] was 1 nM throughout.

As to `COc1cc(OC)cc(N(CCNC(C)C)c2ccc3ncc(-c4cnn(CCCCCCCCC(=O)NCCNc5cccc6c5C(=O)N(C5CCC(=O)NC5=O)C6=O)c4)nc3c2)c1` (centres undefined), the IC50 in assay [1] and in assay [2] was less than 0.17 nM throughout.

On to `COc1cc(OC)cc(N(CCNC(C)C)c2ccc3ncc(-c4cnn(CC(=O)NCCNc5cccc6c5C(=O)N(C5CCC(=O)NC5=O)C6=O)c4)nc3c2)c1` (centres undefined), for which the results for the IC50 in assay [1] and in assay [2] were 463 nM and 48 nM, respectively.

Take `COc1cc(OC)cc(N(CCNC(C)C)c2ccc3ncc(-c4cnn(CCCCCCCCCC(=O)NCCNc5cccc6c5C(=O)N(C5CCC(=O)NC5=O)C6=O)c4)nc3c2)c1` (centres undefined): the IC50 in assay [1] was 2 nM; in assay [2], less than 0.17 nM.

In the case of `COc1cc(OC)cc(N(CCNC(C)C)c2ccc3ncc(-c4cnn(CCCCCC(=O)NCC(=O)NCCNc5cccc6c5C(=O)N(C5CCC(=O)NC5=O)C6=O)c4)nc3c2)c1` (centres undefined), the IC50 in assay [1] was 595 nM; in assay [2], 1 nM.

Regarding `COc1cc(OC)cc(N(CCNC(C)C)c2ccc3ncc(-c4cnn(CCCC(=O)NCCNc5cccc6c5C(=O)N(C5CCC(=O)NC5=O)C6=O)c4)nc3c2)c1` (centres undefined), the IC50 in assay [1] was found to be 172 nM; in assay [2], 234 nM.
